Measurements as given in patent US11479546B2, “Antimalarial hexahydropyrimidine analogues” (UCB Biopharma SRL, priority 2018, dated 2022).

System: Plasmodium falciparum 3D7
Assay: P. falciparum 3D7 asexual blood stage assay, Assay Procedure Version 1 (SYBR green readout)
Assay type: cell-based
Details: 3D7, Erythrocyte, Version 1 of the assay procedure (no asterisk), 72 h incubation in infected erythrocytes, 10,000 nM to 0.51 nM
Protocol: Asexual Blood Stage Assay
The assay used to measure the effect of test compounds on a bloodstream stage of Plasmodium falciparum 3D7 strain employs SYBR green as the readout. This is a dye that binds to double stranded deoxyribonucleic acid (DNA) with a resulting increase in fluorescence, allowing detection of P. falciparum DNA in infected erythrocytes, and thereby providing a measure of parasite growth and propagation.
P. falciparum Culture Maintenance
Erythrocytes (A+blood) were prepared for both parasite culture and assay by washing 4 times with incomplete media (15.9 g RPMI 1640 (25 mM HEPES, L-glutamine), 1 g NaHCO3, 2 g glucose, 400 μL gentacin (500 mg/mL), 2 mL hypoxanthine solution (13.6 g/L in 0.1M NaOH pH 7.3) in 1 litre of media). The cells were centrifuged at 1800 g for 5 minutes, before decanting the supernatant and re-suspending in fresh incomplete media. On the final wash, the cells were re-suspended in complete media (incomplete media with 5 g/L AlbumaxII), and centrifuged at 1800 g for 3 minutes. This cell sediment was treated as 100% haematocrit.
P. falciparum 3D7 was cultured in erythrocytes at 5% haematocrit in complete media at 37° C. (1% O2, 3% CO2, balance N2). Cultures were split on a weekly basis to achieve a 1% parasitaemia in erythrocites at 5% haematocrit in fresh media. Culture media is replaced by fresh media every other day (2 times during the week).
Assay Procedure—Version 1
On day 1, test compounds were added to assay plates using Echo dispensing technology (3 fold dilution and 10 points titration). 50 nL of each compound dilution was added to 50 μL of culture (5% haematocrit, 0.5% parasitaemia) and incubated for 72 h at 37° C. (1% O2, 3% CO2, balance N2). Final concentrations of test compounds ranged from 10,000 nM to 0.51 nM, in […].
On day 4, 10 μL SYBR green (Invitrogen S7563 supplied as 10,000×concentrate in DMSO) pre-diluted to 3× concentrate with Lysis buffer (20 mM Tris pH 7.9, 5% EDTA, 0.16% w/v, 1.6% TX100 v/v) was added to the cultures and incubated in the dark, overnight, at room temperature.
On day 5, fluorescent signal was measured using a BioTek plate reader (excitation 485 nm, emission 528 nm). All data were processed using IDBS ActivityBase. Raw data were converted into percent inhibition through linear regression by setting the high inhibition control as 100% and the no inhibition control as 0%. Quality control criteria for passing plates were as follows: Z′>0.5, S:B>3, % CV(no inhibition control)<15. The formula used to calculate Z′ is
All EC50 curve fitting was undertaken using the following 4 parametric equation:
[formula] where A=% inhibition at bottom; B=% inhibition at top; C=EC50; D=slope; x=inhibitor concentration; and y=% inhibition. […] Assay Procedure—Version 2

Row | Compound | IC50
1 | C[C@@]1(c2cccc(Nc3ccc(OC(F)F)cc3)c2Cl)CC(=O)N(C2CCOCC2)C(=N)N1 [Example 37, (6S)-6-{2-Chloro-3-[4-(difluoro-methoxy)anilino]phenyl}-2-imino-6-methyl-3-(tetrahydro-pyran-4-yl)hexahydropyrimidin-4-one] | 1150 nM
2 | Cc1ncc(Nc2cccc([C@]3(C)CC(=O)N(C4CCOCC4)C(=N)N3)c2Cl)cn1 [Example 19, (6S)-6-{2-Chloro-3-[(2-methyl-pyrimidin-5-yl)amino]phenyl}-2-imino-6-methyl-3-(tetrahydro-pyran-4-yl)hexahydropyrimidin-4-one] | 996 nM
3 | C[C@@]1(c2cccc(Nc3ccccc3C#N)c2Cl)CC(=O)N(C2CCOCC2)C(=N)N1 [Example 17, 2-{2-Chloro-3-[(4S)-2-imino-4-methyl-6-oxo-1-(tetrahydro-pyran-4-yl)hexahydropyrimidin-4-yl]anilino}benzonitrile] | 270 nM
4 | C[C@@]1(c2cccc(Nc3ccccc3)c2Cl)CC(=O)N(C2CCOCC2)C(=N)N1 [Example 2, (6S)-6-(3-Anilino-2-chloro-phenyl)-2-imino-6-methyl-3-(tetrahydropyran-4-yl)-hexahydropyrimidin-4-one] | 150 nM
5 | C[C@@]1(c2cccc(Nc3ccccc3C(F)(F)F)c2Cl)CC(=O)N(C2CCOCC2)C(=N)N1 [Example 16, (6S)-6-{2-Chloro-3-[2-(trifluoromethyl)anilino]-phenyl}-2-imino-6-methyl-3-(tetrahydropyran-4-yl)-hexahydropyrimidin-4-one] | 2290 nM
6 | Cc1ccc(Nc2cccc([C@]3(C)CC(=O)N(C4CCOCC4)C(=N)N3)c2Cl)cn1 [Example 14, (6S)-6-{2-Chloro-3-[(6-methyl-pyridin-3-yl)amino]phenyl}-2-imino-6-methyl-3-(tetrahydro-pyran-4-yl)hexahydropyrimidin-4-one] | 280 nM
7 | C[C@@]1(c2cccc(Nc3ccc(N4CCOCC4)nc3)c2Cl)CC(=O)N(C2CCOCC2)C(=N)N1 [Example 25, (6S)-6-(2-Chloro-3-{[6-(morpholin-4-yl)pyridin-3-yl]amino}phenyl)-2-imino-6-methyl-3-(tetrahydropyran-4-yl)hexahydropyrimidin-4-one] | 821 nM
8 | C[C@@]1(c2cccc(Nc3cc(OC(F)(F)F)ccc3F)c2Cl)CC(=O)N(C2CCOCC2)C(=N)N1 [Example 22, (6S)-6-{2-Chloro-3-[2-fluoro-5-(trifluoromethoxy)anilino]-phenyl}-2-imino-6-methyl-3-(tetrahydropyran-4-yl)-hexahydropyrimidin-4-one] | 1520 nM
9 | C[C@@]1(c2cccc(Nc3ccccc3)c2Cl)CC(=O)N([C@@H]2CCOC2)C(=N)N1 (relative stereo) [Example 6, (6S)-6-(3-Anilino-2-chloro-phenyl)-2-imino-6-methyl-3-[(3S or 3R*)-tetrahydrofuran-3-yl]hexahydropyrimidin-4-one] | 70 nM
10 | C[C@@]1(c2cccc(Nc3ccccc3)c2Cl)CC(=O)N([C@H]2CCOC2)C(=N)N1 (relative stereo) [Example 5, (6S)-6-(3-Anilino-2-chloro-phenyl)-2-imino-6-methyl-3-[(3S or 3R*)-tetrahydrofuran-3-yl]hexahydropyrimidin-4-one] | 120 nM

Second part, the molecule after the results:

Row | IC50 | Compound
11 | 243 nM | C[C@@]1(c2ccc(F)c(Nc3ccc(F)cc3)c2Cl)CC(=O)N(C2CCOCC2)C(=N)N1 [Example 206, (6S)-6-[2-Chloro-4-fluoro-3-(4-fluoroanilino)phenyl]-2-imino-6-methyl-3-(tetrahydro-pyran-4-yl)hexahydropyrimidin-4-one]
12 | 659 nM | Cc1ccc(Nc2c(F)ccc([C@]3(C)CC(=O)N(C4CCOCC4)C(=N)N3)c2Cl)cn1 [Example 207, (6S)-6-{2-Chloro-4-fluoro-3-[(6-methylpyridin-3-yl)amino]phenyl}-2-imino-6-methyl-3-(tetrahydropyran-4-yl)hexahydropyrimidin-4-one]
13 | 811 nM | C[C@@]1(c2cccc(Nc3cc(F)c(F)cc3F)c2Cl)CC(=O)N(C2CCOCC2)C(=N)N1 [Example 38, (6S)-6-[2-Chloro-3-(2,4,5-trifluoroanilino)phenyl]-2-imino-6-methyl-3-(tetrahydro-pyran-4-yl)hexahydropyrimidin-4-one]
14 | 2200 nM | COc1ccc(Nc2cccc([C@]3(C)CC(=O)N(C4CCOCC4)C(=N)N3)c2Cl)cc1OC [Example 164, (6S)-6-[2-Chloro-3-(3,4-dimethoxyanilino)phenyl]-2-imino-6-methyl-3-(tetrahydro-pyran-4-yl)hexahydropyrimidin-4-one]
15 | 905 nM | C[C@@]1(c2cccc(Nc3ccc(Cl)cc3)c2Cl)CC(=O)N(C2CCOCC2)C(=N)N1 [Example 162, (6S)-6-[2-Chloro-3-(4-chloro-anilino)phenyl]-2-imino-6-methyl-3-(tetrahydropyran-4-yl)hexahydropyrimidin-4-one]
16 | 1510 nM | C[C@@]1(c2cccc(Nc3ccc(C#N)nc3)c2Cl)CC(=O)N(C2CCOCC2)C(=N)N1 [Example 40, 5-{2-Chloro-3-[(4S)-2-imino-4-methyl-6-oxo-1-(tetrahydro-pyran-4-yl)hexahydropyrimidin-4-yl]anilino}pyridine-2-carbo-nitrile]
17 | 31 nM | C[C@@H]1C[C@H](N2C(=N)N[C@](C)(c3cccc(Nc4cnc(C5CC5)nc4)c3Cl)CC2=O)CCO1 (relative stereo) [Example 204, (6S)-6-{2-Chloro-3-[(2-cyclo-propylpyrimidin-5-yl)amino]-phenyl}-2-imino-6-methyl-3-[(2R*,4R*)-2-methyltetrahydro-pyran-4-yl]hexahydropyrimidin-4-one]
18 | 323 nM | C[C@@]1(c2cccc(Nc3ccc(F)cc3)c2Cl)CC(=O)N([C@@H]2CCOC2)C(=N)N1 (relative stereo) [Example 169, (6S)-6-[2-Chloro-3-(4-fluoro-anilino)phenyl]-2-imino-6-methyl-3-[(3R*)-tetrahydro-furan-3-yl]hexahydropyrimidin-4-one]
19 | 1660 nM | C[C@@]1(c2cccc(Nc3ccc(C#N)c(F)c3)c2Cl)CC(=O)N([C@H]2C[C@@](C)(O)C2)C(=N)N1 [Example 121, 4-{2-Chloro-3-[(4S)-1-(3-hydroxy-3-methylcyclobutyl)-2-imino-4-methyl-6-oxo-hexahydropyrimidin-4-yl]-anilino}-2-fluorobenzonitrile]
20 | 1780 nM | COC(=O)c1cccc(Nc2cccc([C@]3(C)CC(=O)N(C4CCOCC4)C(=N)N3)c2Cl)c1 [Example 166, Methyl 3-{2-chloro-3-[(4S)-2-imino-4-methyl-6-oxo-1-(tetrahydropyran-4-yl)-hexahydropyrimidin-4-yl]-anilino}benzoate]
21 | 1140 nM | C[C@@]1(c2cccc(Nc3ccc(F)cc3)c2Cl)CC(=O)N(C2CC3(COC3)C2)C(=N)N1 [Example 171, (6S)-6-[2-Chloro-3-(4-fluoro-anilino)phenyl]-2-imino-6-methyl-3-(2-oxaspiro[3.3]-heptan-6-yl)hexahydro-pyrimidin-4-one]
22 | 890 nM | Cc1ccccc1Nc1cccc([C@]2(C)CC(=O)N(C3CCOCC3)C(=N)N2)c1Cl [Example 165, (6S)-6-[2-Chloro-3-(2-methyl-anilino)phenyl]-2-imino-6-methyl-3-(tetrahydropyran-4-yl)hexahydropyrimidin-4-one]
23 | 913 nM | C[C@@]1(c2cccc(Nc3cccc(C(F)(F)F)c3)c2Cl)CC(=O)N(C2CCOCC2)C(=N)N1 [Example 163, (6S)-6-{2-Chloro-3-[3-(trifluoromethyl)anilino]-phenyl}-2-imino-6-methyl-3-(tetrahydropyran-4-yl)-hexahydropyrimidin-4-one]
24 | 2580 nM | C[C@@]1(c2cccc(Nc3ccc(F)cc3)c2Cl)CC(=O)N([C@@H]2CCCOC2)C(=N)N1 (relative stereo) [Example 190, (6S)-6-[2-Chloro-3-(4-fluoro-anilino)phenyl]-2-imino-6-methyl-3-[(3R* or 3S)-tetrahydropyran-3-yl]-hexahydropyrimidin-4-one]
25 | 2090 nM | C[C@@]1(c2cccc(Nc3ccc(S(C)(=O)=O)cc3)c2Cl)CC(=O)N(C2CCOCC2)C(=N)N1 [Example 39, (6S)-6-[2-Chloro-3-(4-methyl-sulfonylanilino)phenyl]-2-imino-6-methyl-3-(tetrahydro-pyran-4-yl)hexahydropyrimidin-4-one]
